Source: US20080193374A1, “Liposomes Enclosing a Radionuclide and a Cytotoxic Agent for Combination Therapy” (priority 2004, published 2008)

What was measured:
[1] = system: OHS osteosarcoma xenografts; experiment: Tissue distribution of 223Ra in Caelyx liposomes, nude mice with OHS osteosarcoma xenografts (Example 2); type: in vivo
Method: 10 nude mice were prepared with OHS osteosarcoma xenografts. Each mouse was trated subcutaneously with one dose of 375 kBq/kg of 223Ra encapsulated in Caelyx lipsomes as prepared in Example 1.
After 1 hour, one day and four days, three, three and four animals were sacrificed respectively and the tissue distribution of radioactive material was measured.
The distribution of radionuclide was also compared with a control in which the radium was administered as a salt in a solution of liposomes but not encapsulated thereby.

[2] = Main biodistribution and blood clearance study with four days pre-treatment; liposomal vs free 223Ra (Example 4); type: in vivo, Balb/C mice; conditions: i.v.
Method: In the main study, the mice were divided into four different groups. Each group consisted of 6-7 animals of both sexes. […] One mouse in each of groups two, three and four, were left untreated and were used to measure possible reuptake of the product from faeces or the bedding.
Blood was withdrawn, the mice were euthanised and the radioactivity measurements were performed in the same manner as in Example 3, 1 hour, 24 hours, 6 days and 14 days post injection for the respective groups of mice.
To study the difference between liposomally encapsulated and free ^223Ra, a group of mice was injected intravenously with dissolved ^223RaCl.

[Cl][223Ra][Cl] [free ^223Ra, ^223RaCl]
clearance from blood [1]: rapid clearance | half-life (T1/2) circulating in the blood [2]: less than 1 hours
